Source: PubChem BioAssay (NCI)
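Five concentrations, 48 hours, 96-well plates. TGI is the concentration that stops growth completely.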

Columns and labels:
Assay in all cases: inhibition of tumour cell growth, NCI panel, 48 h
DLD-1 colon = tested on: DLD-1 colon
DMS 273 small cell lung = tested on: DMS 273 small cell lung
KM20L2 colon = tested on: KM20L2 colon
M19-MEL melanoma = tested on: M19-MEL melanoma
SNB-78 CNS = tested on: SNB-78 CNS
XF 498 CNS = tested on: XF 498 CNS
MDA-N = tested on: MDA-N
RXF-631 renal = tested on: RXF-631 renal

Structure (SMILES): CC(C)N(C(=O)C12C3C4C5(C#N)C3C1(C#N)C5C42C#N)C(C)C (stereo not drawn)
- TGI (DLD-1 colon): > 100 µM
- TGI (DMS 273 small cell lung): > 100 µM
- TGI (KM20L2 colon): > 100 µM
- TGI (M19-MEL melanoma): > 100 µM
- TGI (SNB-78 CNS): > 100 µM
- TGI (XF 498 CNS): > 100 µM

Structure (SMILES): Oc1ccc(C=Nc2ccccc2O)cc1
- TGI (MDA-N): 33.8 µM

Structure (SMILES): O=C(C(=O)c1cc2ccccc2[nH]1)c1cc2ccccc2[nH]1
- TGI (DLD-1 colon): > 347 µM
- TGI (DMS 273 small cell lung): > 347 µM
- TGI (KM20L2 colon): > 347 µM
- TGI (M19-MEL melanoma): > 347 µM
- TGI (RXF-631 renal): > 347 µM
- TGI (SNB-78 CNS): > 347 µM
- TGI (XF 498 CNS): 336 µM

Structure (SMILES): C=C(CCCCC)CN1CCCC1C(C)=O (stereo not drawn)
- TGI (DLD-1 colon): > 100 µM
- TGI (DMS 273 small cell lung): 53.1 µM
- TGI (KM20L2 colon): > 100 µM
- TGI (M19-MEL melanoma): > 100 µM
- TGI (SNB-78 CNS): > 76.6 µM
- TGI (XF 498 CNS): 41.7 µM

Structure (SMILES): O=C(O)CSc1n[nH]c(=O)[nH]c1=O
- TGI (MDA-N): > 100 µM

Structure (SMILES): O=C1[C@H]2ON(c3ccccc3)C(c3ccc([N+](=O)[O-])cc3)[C@H]2C(=O)N1c1ccc(Cc2ccc(N3C(=O)[C@@H]4ON(c5ccccc5)C(c5ccc([N+](=O)[O-])cc5)[C@@H]4C3=O)cc2)cc1 (stereo partly drawn)
- TGI (DLD-1 colon): > 100 µM
- TGI (DMS 273 small cell lung): > 100 µM
- TGI (KM20L2 colon): > 100 µM
- TGI (M19-MEL melanoma): > 100 µM
- TGI (RXF-631 renal): > 100 µM
- TGI (SNB-78 CNS): > 100 µM

Structure (SMILES): Cc1cnc2ccc(C)c([N+](=O)[O-])c2c1NCCCN(C)C
- TGI (DMS 273 small cell lung): > 100 µM
- TGI (KM20L2 colon): > 100 µM
- TGI (M19-MEL melanoma): > 100 µM
- TGI (SNB-78 CNS): > 100 µM
- TGI (XF 498 CNS): > 100 µM

Structure (SMILES): NNC(=O)C(=O)N/N=C(\CCCC(=O)Nc1ccc(Cl)cc1)CC(=O)c1ccc(F)cc1
- TGI (DLD-1 colon): > 100 µM
- TGI (KM20L2 colon): > 100 µM
- TGI (M19-MEL melanoma): > 100 µM
- TGI (RXF-631 renal): > 100 µM
- TGI (SNB-78 CNS): > 100 µM
- TGI (XF 498 CNS): > 100 µM

Structure (SMILES): C/C(=N\N=C(N)N)C(CN1CCCCC1)C(c1ccccc1)c1c(O)c2ccccc2oc1=O (stereo not drawn)
- TGI (DLD-1 colon): > 100 µM
- TGI (KM20L2 colon): > 100 µM
- TGI (M19-MEL melanoma): > 100 µM
- TGI (RXF-631 renal): > 100 µM
- TGI (XF 498 CNS): > 100 µM

Structure (SMILES): Cc1nc([N+](=O)[O-])cn1-c1nc2ccccn2c1[N+](=O)[O-]
- TGI (MDA-N): > 100 µM

Structure (SMILES): COc1ccc(Cc2c3cc(O)c(=O)cc-3ccn2C)cc1
- TGI (DLD-1 colon): > 100 µM
- TGI (DMS 273 small cell lung): > 100 µM
- TGI (KM20L2 colon): > 100 µM
- TGI (M19-MEL melanoma): 75 µM
- TGI (RXF-631 renal): > 100 µM
- TGI (SNB-78 CNS): > 100 µM
- TGI (XF 498 CNS): > 100 µM

Structure (SMILES): CSc1ccc2c(cc1=O)[C@@H](NC(=O)c1cccc([N+](=O)[O-])c1)CCc1cc(O)c(O)c(O)c1-2
- TGI (DLD-1 colon): > 100 µM
- TGI (DMS 273 small cell lung): > 100 µM
- TGI (KM20L2 colon): 56.5 µM
- TGI (M19-MEL melanoma): 49.4 µM
- TGI (RXF-631 renal): > 100 µM

Structure (SMILES): CCOC(OC(C)=O)[C@@H]1C=C[C@H](C)N(c2ccc([N+](=O)[O-])cc2)O1 (stereo partly drawn)
- TGI (DLD-1 colon): 11.1 µM
- TGI (DMS 273 small cell lung): 13.4 µM
- TGI (KM20L2 colon): 34.3 µM
- TGI (M19-MEL melanoma): 5.3 µM
- TGI (RXF-631 renal): 25.7 µM
- TGI (SNB-78 CNS): 60.4 µM
- TGI (XF 498 CNS): 32.6 µM

Structure (SMILES): C=CCNC(=O)NCCCCC(NC(C)=O)C(=O)NCc1ccccc1 (stereo not drawn)
- TGI (DMS 273 small cell lung): > 100 µM
- TGI (KM20L2 colon): > 100 µM
- TGI (M19-MEL melanoma): > 100 µM
- TGI (XF 498 CNS): > 100 µM

Structure (SMILES): O=C(O)CCNCC(=O)O
- TGI (MDA-N): > 100 µM

Structure (SMILES): C=C(C)[C@H]1CC[C@@]2(C)C(C1)[C@H](C)CC[C@@H]2O (stereo partly drawn)
- TGI (DLD-1 colon): > 100 µM
- TGI (DMS 273 small cell lung): > 100 µM
- TGI (KM20L2 colon): > 100 µM
- TGI (M19-MEL melanoma): > 100 µM
- TGI (RXF-631 renal): > 100 µM
- TGI (SNB-78 CNS): > 100 µM
- TGI (XF 498 CNS): > 100 µM

Structure (SMILES): CC1=N/C(=C/c2ccc3c(c2)OCO3)C(=O)O1
- TGI (DMS 273 small cell lung): > 100 µM
- TGI (KM20L2 colon): > 100 µM
- TGI (M19-MEL melanoma): > 100 µM
- TGI (RXF-631 renal): > 100 µM
- TGI (SNB-78 CNS): > 100 µM
- TGI (XF 498 CNS): > 100 µM

Structure (SMILES): COC(COC(N)=O)C1=C(N2CC2)C(=O)C(C)=C(N2CC2)C1=O (stereo not drawn)
- TGI (DLD-1 colon): 1.03 µM
- TGI (DMS 273 small cell lung): 0.0752 µM
- TGI (KM20L2 colon): 0.525 µM
- TGI (M19-MEL melanoma): 0.507 µM
- TGI (MDA-N): 0.269 µM
- TGI (SNB-78 CNS): 8.44 µM
- TGI (XF 498 CNS): 0.415 µM
